According to ChEMBL document CHEMBL1201862, “PubChem BioAssay data set” (2004):
Blank lines part the entries; values can stand above or below the molecule they belong to. Calls of active or inactive are those of the source.

How the values were obtained:
[1] = molecular target: T1, Apoptotic protease-activating factor 1 (Homo sapiens, UniProt O14727); type: functional
T1 sequence (O14727 whole entry): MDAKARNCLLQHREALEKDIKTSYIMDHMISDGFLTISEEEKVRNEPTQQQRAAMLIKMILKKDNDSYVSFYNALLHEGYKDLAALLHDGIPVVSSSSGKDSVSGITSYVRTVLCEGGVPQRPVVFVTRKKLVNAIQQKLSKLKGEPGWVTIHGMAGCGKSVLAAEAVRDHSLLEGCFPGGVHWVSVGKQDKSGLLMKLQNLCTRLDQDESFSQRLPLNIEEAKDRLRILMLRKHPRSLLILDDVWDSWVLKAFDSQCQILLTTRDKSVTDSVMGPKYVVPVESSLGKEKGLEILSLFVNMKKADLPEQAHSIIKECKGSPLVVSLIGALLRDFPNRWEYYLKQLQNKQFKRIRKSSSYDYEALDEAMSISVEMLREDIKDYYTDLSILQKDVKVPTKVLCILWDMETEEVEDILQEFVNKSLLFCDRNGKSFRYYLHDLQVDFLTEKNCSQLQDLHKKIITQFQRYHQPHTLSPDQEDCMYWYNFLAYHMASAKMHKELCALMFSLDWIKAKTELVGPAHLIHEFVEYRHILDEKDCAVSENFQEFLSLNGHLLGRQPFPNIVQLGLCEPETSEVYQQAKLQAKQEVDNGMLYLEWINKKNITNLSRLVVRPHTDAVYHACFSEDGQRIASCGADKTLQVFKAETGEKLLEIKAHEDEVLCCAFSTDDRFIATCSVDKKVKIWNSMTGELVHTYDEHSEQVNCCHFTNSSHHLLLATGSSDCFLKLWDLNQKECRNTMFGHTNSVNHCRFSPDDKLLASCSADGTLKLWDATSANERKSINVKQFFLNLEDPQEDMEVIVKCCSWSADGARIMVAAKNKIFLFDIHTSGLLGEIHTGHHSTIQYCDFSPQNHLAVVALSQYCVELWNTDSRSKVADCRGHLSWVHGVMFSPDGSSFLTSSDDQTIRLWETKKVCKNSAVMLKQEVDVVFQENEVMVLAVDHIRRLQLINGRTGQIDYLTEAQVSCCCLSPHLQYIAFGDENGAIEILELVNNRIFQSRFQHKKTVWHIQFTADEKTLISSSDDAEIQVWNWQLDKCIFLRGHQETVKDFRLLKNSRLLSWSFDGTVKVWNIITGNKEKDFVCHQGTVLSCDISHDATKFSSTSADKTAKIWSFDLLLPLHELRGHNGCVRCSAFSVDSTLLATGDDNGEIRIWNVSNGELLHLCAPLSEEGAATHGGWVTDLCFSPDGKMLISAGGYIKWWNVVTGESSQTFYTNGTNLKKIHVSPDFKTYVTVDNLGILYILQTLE

Caspase-6 = molecular target: T2, Caspase-6 (Homo sapiens, UniProt P55212); test: human caspase-6 inhibitors, dose response, biochemical, VEID-R110 fluorescence, cherry-pick (AID 720632)
T2 sequence (P55212 whole entry): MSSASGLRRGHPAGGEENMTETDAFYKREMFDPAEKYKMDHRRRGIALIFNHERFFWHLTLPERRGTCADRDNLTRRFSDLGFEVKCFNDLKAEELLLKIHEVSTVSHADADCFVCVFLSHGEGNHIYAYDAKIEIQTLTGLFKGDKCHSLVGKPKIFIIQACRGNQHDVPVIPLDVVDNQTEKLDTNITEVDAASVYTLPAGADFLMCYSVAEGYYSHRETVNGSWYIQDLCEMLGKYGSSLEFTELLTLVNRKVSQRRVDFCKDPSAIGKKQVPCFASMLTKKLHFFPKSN

[2] = molecular target: Tyrosine-protein kinase Srms (Homo sapiens, UniProt Q9H3Y6); type: functional;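 further: SRMS measured as one member of a kinome-wide kinase profiling panel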
[3] = molecular target: Tyrosine-protein kinase Fer (Homo sapiens, UniProt P16591); type: functional;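 further: FER tested as one member of a kinome panel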
[4] = molecular target: Serine/threonine-protein kinase PLK3 (Homo sapiens, UniProt Q9H4B4); type: functional
[5] = molecular target: Interleukin-1 receptor-associated kinase 4 (Homo sapiens, UniProt Q9NWZ3); type: functional
Interleukin-1 receptor-associated kinase 4, sequence (Q9NWZ3 whole entry): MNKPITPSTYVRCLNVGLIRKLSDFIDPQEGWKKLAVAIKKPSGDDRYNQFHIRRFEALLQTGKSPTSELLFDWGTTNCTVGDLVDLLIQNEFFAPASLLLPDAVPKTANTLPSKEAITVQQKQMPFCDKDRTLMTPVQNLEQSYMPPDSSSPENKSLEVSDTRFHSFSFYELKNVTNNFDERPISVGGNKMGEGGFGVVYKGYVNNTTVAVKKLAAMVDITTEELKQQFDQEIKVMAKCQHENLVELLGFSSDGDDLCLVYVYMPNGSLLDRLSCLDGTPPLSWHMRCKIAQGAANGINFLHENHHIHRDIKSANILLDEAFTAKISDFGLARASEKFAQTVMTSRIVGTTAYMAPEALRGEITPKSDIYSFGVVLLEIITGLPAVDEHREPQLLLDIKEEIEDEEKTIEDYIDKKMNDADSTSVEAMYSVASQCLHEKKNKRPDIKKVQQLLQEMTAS

Serine/threonine-protein kinase PLK3, sequence (Q9H4B4 whole entry): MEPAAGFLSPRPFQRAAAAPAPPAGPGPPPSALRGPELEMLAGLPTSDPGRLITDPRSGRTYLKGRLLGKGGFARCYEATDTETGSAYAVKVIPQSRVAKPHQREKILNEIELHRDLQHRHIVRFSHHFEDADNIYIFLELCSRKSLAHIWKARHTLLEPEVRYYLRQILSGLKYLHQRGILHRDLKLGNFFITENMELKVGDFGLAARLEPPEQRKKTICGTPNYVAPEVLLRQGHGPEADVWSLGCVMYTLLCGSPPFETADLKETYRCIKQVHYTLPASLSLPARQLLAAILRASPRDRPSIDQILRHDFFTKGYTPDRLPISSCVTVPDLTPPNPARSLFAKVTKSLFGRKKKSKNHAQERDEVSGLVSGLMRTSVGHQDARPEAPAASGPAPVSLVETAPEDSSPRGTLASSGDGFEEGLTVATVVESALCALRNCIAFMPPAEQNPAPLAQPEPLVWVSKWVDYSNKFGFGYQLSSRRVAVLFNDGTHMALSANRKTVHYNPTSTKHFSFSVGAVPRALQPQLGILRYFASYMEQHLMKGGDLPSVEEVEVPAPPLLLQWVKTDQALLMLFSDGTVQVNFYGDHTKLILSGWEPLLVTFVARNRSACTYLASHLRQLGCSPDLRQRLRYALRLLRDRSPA
Tyrosine-protein kinase Fer, sequence (P16591 whole entry): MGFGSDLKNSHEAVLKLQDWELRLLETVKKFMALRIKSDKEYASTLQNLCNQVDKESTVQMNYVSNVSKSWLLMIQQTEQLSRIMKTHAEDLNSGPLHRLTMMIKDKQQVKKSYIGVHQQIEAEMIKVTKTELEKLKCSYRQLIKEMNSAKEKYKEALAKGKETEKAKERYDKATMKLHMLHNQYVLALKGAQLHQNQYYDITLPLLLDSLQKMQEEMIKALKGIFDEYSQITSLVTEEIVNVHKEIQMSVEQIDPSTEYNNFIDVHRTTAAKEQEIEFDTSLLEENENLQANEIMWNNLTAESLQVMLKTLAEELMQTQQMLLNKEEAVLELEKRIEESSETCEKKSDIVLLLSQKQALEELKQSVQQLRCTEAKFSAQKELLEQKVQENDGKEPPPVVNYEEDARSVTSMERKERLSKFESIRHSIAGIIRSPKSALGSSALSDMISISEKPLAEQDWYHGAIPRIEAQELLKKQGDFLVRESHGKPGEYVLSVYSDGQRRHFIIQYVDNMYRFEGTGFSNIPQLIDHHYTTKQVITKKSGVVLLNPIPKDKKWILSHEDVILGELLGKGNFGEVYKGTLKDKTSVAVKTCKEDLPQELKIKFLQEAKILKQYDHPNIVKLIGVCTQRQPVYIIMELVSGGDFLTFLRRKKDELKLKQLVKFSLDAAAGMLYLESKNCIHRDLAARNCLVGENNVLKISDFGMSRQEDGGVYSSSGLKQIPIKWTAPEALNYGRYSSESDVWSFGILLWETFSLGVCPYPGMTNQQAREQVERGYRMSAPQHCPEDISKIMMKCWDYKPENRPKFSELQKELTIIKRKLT
Tyrosine-protein kinase Srms, sequence (Q9H3Y6 whole entry): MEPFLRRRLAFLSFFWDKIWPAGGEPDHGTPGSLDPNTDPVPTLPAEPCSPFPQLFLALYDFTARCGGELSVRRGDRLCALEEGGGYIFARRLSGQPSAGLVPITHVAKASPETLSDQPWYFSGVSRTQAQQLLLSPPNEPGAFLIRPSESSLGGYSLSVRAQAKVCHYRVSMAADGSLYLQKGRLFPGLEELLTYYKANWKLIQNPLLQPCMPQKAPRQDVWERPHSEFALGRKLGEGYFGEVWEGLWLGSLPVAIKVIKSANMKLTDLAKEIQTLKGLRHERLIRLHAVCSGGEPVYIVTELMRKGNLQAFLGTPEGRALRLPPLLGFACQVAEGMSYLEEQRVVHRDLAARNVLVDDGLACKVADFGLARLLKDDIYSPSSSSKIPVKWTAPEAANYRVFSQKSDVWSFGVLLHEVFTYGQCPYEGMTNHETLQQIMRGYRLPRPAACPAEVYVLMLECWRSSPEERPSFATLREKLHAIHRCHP

Structure (SMILES): CCOC(=O)c1c(NS(=O)(=O)c2ccccc2)n(CCCOC)c2nc3ccccc3nc12
IC50 [1]: 24.2 µM (active)

AC50 (Caspase-6): 11 µM (active)
Structure (SMILES): O=C(COC(=O)c1ccc([N+](=O)[O-])s1)NCCc1ccccc1

Ki [2]: > 1.58 µM (inactive)
Ki [3]: 501 nM (active)
Ki [4]: 3.98 µM (active)
Ki [5]: 316 nM (active)
Structure (SMILES): OC1CCC(Nc2cc(Cl)nc(-c3c[nH]c4ncccc34)n2)CC1 (stereo unspecified)
